Data as given in article PMC4830392 (Biochemical pharmacology, 2015).

Molecular target: OXE receptor (Felis catus, UniProt A0ABI7XKF2)
Assay: actin polymerization
Type: cell-based

OXE receptor, sequence (A0ABI7XKF2 1-379): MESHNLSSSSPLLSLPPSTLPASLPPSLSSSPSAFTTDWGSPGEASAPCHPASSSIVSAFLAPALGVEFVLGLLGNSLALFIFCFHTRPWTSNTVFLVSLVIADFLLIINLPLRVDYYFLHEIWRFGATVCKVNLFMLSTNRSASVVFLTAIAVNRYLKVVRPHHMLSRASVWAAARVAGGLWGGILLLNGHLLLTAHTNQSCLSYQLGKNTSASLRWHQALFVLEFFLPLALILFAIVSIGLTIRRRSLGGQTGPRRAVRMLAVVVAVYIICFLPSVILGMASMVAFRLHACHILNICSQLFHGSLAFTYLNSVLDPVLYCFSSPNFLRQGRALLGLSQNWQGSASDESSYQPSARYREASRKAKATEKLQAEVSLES

EC50: 0.72 nM
Compound: CCCCC/C=C\C/C=C\C/C=C\C=C\C(=O)CCCC(=O)O [5-oxo-ETE, 5-oxo-6E,8Z,11Z,14Z-eicosatetraenoic acid]
